From patent US20150265642A1, “NAD BIOSYNTHESIS AND PRECURSORS IN THE PREVENTION AND TREATMENT OF INFLAMMATION” (PRESIDENT AND FELLOWS OF HARVARD COLLEGE, priority 2013, published 2015) come the findings set out here.

Entries after “also recorded” stand apart in the source; their conditions may differ.

Test [1] relates to mitochondrial-encoded genes (ND1, Cytb, COX1 and ATP6). Briefly: qPCR of mitochondrial-encoded genes in gastrocnemius of NMN-treated mice. Type of test: in vivo. The text has this:
(§1) C57BL/6J mice of 6, 22, or 30 months of age were obtained from the National Institutes of Aging mouse aging colony. Additionally 22 months old caloric restricted mice were also obtained from the National Institutes of Aging mouse aging colony. EGLN1 KO, SIRT1 KO and SIRT1 OE mice were generated as previously described (Minamishima et al., 2008; Price et al., 2012). Mice were acclimated for at least one-week prior to sacrifice. 3, 6, 22 and 24-month-old mice were given interperitoneal (IP) injections of 500 mg NMN/kg body weight per day or the equivalent volume of PBS for 7 consecutive days at 5:00 pm and 7:00 am on day 8 and sacrificed 4 hr after last injection.
Whole body adult-inducible Egln1 knockout mice (Minamishima et al, 2007) were treated with IP injection of tamoxifen for 3 days after which they were allowed to rest. The mice were given interperitoneal (IP) injections of 500 mg NMN/kg body weight per day or the equivalent volume of PBS for 7 consecutive days at 5:00 pm and 7:00 am on day 8 and sacrificed 4 hr after last injection. All animal studies followed the guidelines of and were approved by the Harvard Institutional Animal Care and Use Committee.
RNA from skeletal muscle tissue and C2C12 cells were extracted with RNeasy mini kit (Qiagen) according to the instructions and quantified using the NanoDrop 1000 spectrophotometer (Thermo Scientific). cDNA was synthesized with the iSCRIP cDNA synthesis kit (BioRad) using 600 ng of RNA. Quantitative RT-PCR reactions were performed using 1 μM of primers and LightCycler® 480 SYBR Green Master (Roche) on an LightCycler® 480 detection system (Roche). Calculations were performed by a comparative method (2-ΔCT) using 18S as an internal control. For mtDNA analysis, total DNA was extracted with DNeasy blood and tissue kit (Qiagen). mtDNA was amplified using primers specific for the mitochondrial cytochrome c oxidase subunit 2 (COX2) gene and normalized to genomic DNA by amplification of the ribosomal protein s18 (rps18) nuclear gene. […]

A further test relates to PGC-1α/β KO myotubes. Briefly: Gene expression (qPCR) and HIF-1α immunoblot in PGC-1α/β KO myotubes. Type of test: cell-based, mice. Also noted: expression of mitochondrially-encoded ETC genes (ND1, CYTB, COX1, ATP6): dose or concentration left out as unconfirmed. The following applies: primary PGC-1α/β KO myotubes incubated with NMN (12 h). The procedure: Primary myoblasts cells were isolated from WT, SIRT1 KO (Price et al., 2012) and PGC-1α/β KO (Zechner et al., 2010) mice as previously described (Price et al., 2012). WT and PGC-1α/β KO primary myoblasts were plated and allowed to differentiate into myotubes by replacing the media with low glucose DMEM supplemented with 2% horse serum (Sigma-Aldrich) for 4 days. After the differentiation the cells were infected with empty vector or flag-SIRT1 adenovirus as described before (Gerhart-Hines et al., 2007). Media was replaced with fresh DMEM supplemented with 2% horse serum (Sigma-Aldrich) for an additional 48 hr and, after that the cells were harvested for the different assays as described. To investigate the role of HIF-1α in genome asynchrony, PGC-1α/β KO primary myotubes were treated for 12 hours with 1 mM DMOG (Sigma) or 10 μM DFO (Sigma), 24 h after infection with empty vector of flag-SIRT1 adenovirus or after 12 h treatment with […] NMN (Sigma).
RNA from skeletal muscle tissue and C2C12 cells were extracted with RNeasy mini kit (Qiagen) according to the instructions and quantified using the NanoDrop 1000 spectrophotometer (Thermo Scientific). cDNA was synthesized with the iSCRIP cDNA synthesis kit (BioRad) using 600 ng of RNA. Quantitative RT-PCR reactions were performed using 1 μM of primers and LightCycler® 480 SYBR Green Master (Roche) on an LightCycler® 480 detection system (Roche). Calculations were performed by a comparative method (2-ΔCT) using 18S as an internal control. For mtDNA analysis, total DNA was extracted with DNeasy blood and tissue kit (Qiagen). mtDNA was amplified using primers specific for the mitochondrial cytochrome c oxidase subunit 2 (COX2) gene and normalized to genomic DNA by amplification of the ribosomal protein s18 (rps18) nuclear gene. Primers were designed using the IDT software (IDT) and the primer sequences can be found in Table 1.
(§2) Protein extracts from tissue or C2C12 cells were obtained by lysis in ice-cold lysis buffer (150 mM NaCl, 10 mM Tris HCl (pH 7.4), 1 mM EDTA, 1 mM EGTA, 1% Triton X-100, 0.5% NP-40) supplemented with a cocktail of protease and phosphatase inhibitors (Roche). Protein content was determined by the Bradford protein assay (Biorad), and 50 μg proteins were run on SDS-PAGE under reducing conditions. The separated proteins were then electrophoretically transferred to a polyvinylidene difluoride membrane (Perkin-Elmer). […] The immunostaining was detected using horseradish peroxidase-conjugated anti-rabbit or anti-mouse immunoglobulin for 1 h at room temperature.
(In qPCR the cycle at which signal appears reflects the starting amount.)

Another test has as its system VHL. Briefly: Immunoblot for VHL in gastrocnemius of NMN-treated mice. Type of test: in vivo. The following applies: 22-month-old mice, NMN one week.
Excerpt: as §1, §2
Background: A western blot detects proteins with antibodies after separation by electrophoresis.

Test [2] has as its system inflammation related markers (TNFa, IL-6, IL-18). Briefly: qPCR of inflammation related markers in gastrocnemius. Type of test: in vivo, C57BL/6J mice. The following applies: 22-month-old mice, NMN IP 500 mg/kg/day, 7 days, 500 mg/kg/day. The procedure:
C57BL/6J mice of 3, 6, 22, or 24 months of age were obtained from the National Institutes of Aging mouse aging colony. Mice were acclimated for at least one-week prior to sacrifice. 3, 6, 22 and 24-month-old mice were given interperitoneal (IP) injections of 500 mg NMN/kg body weight per day or the equivalent volume of PBS for 7 consecutive days at 5:00 pm and 7:00 am on day 8 and sacrificed 4 hr after last injection. All animal studies followed the guidelines of and were approved by the Harvard Institutional Animal Care and Use Committee
C57BL/6J mice of 6 months of age were given interperitoneal (IP) injections of 300 mg DMOG/kg body weight per day or the equivalent volume of PBS for 5 consecutive days. All animal studies followed the guidelines of and were approved by the Harvard Institutional Animal Care and Use Committee
RNA from skeletal muscle and aorta were extracted with RNeasy mini kit (Qiagen) according to the instructions and quantified using the NanoDrop 1000 spectrophotometer (Thermo Scientific). cDNA was synthesized with the iSCRIP cDNA synthesis kit (BioRad) using 600 ng of RNA. Quantitative RT-PCR reactions were performed using 1 μM of primers and LightCycler® 480 SYBR Green Master (Roche) on an LightCycler® 480 detection system (Roche). Calculations were performed by a comparative method (2-ΔCT) using 18S as an internal control. […]

For the compound `NC(=O)c1ccc[n+]([C@@H]2O[C@H](COP(=O)([O-])O)[C@@H](O)[C@H]2O)c1` [NMN, nicotinamide mononucleotide], in test [1] (Egln1 KO mice treated with NMN, compared to WT controls), the “mitochondrial-encoded genes in the skeletal muscle” value is given as “did not restore”. Also, in test [1] (inducible SIRT1 KO mice, skeletal muscle), the “ability of NMN to induce mitochondrially-encoded genes” value is reported as “lost in animals lacking SIRT1”. In addition, the “expression of mitochondrial-encoded genes” value in test [1] (old (22-month-old) mice, gastrocnemius, NMN one week) is recorded as “restored”. In addition, in the test with PGC-1α/β KO myotubes, the “expression of mitochondrially-encoded ETC genes (ND1, CYTB, COX1, ATP6)” value is reported as “induced expression of mitochondrially-encoded ETC genes”. Besides, the VHL protein result with VHL is reported as “reversed the age-induced decline in VHL”. The “expression of inflammation markers (TNFa, IL-6, IL-18) in the skeletal muscle” value in test [2] is on record as “completely reversed; also recorded: reverses age-related increase in inflammatory markers in the skeletal muscle”.
